Read-outs that look alike come from different tables or passages of the source.
Columns and labels:
H S A = H S A (Homo sapiens, UniProt P02768); experiment: H S A column α; assay type: in vitro ADME
Rat plasma % remain = assay type: in vitro ADME
[1] = In vitro metabolism: disappearance of parent compound in dog liver microsomes; assay type: in vitro ADME; conditions: 5 uM compound, 30 minutes 37° C.
Procedure: (§1) Human, rat, dog, and monkey liver microsomes were isolated by differential centrifugation. Specimens of human liver were obtained from the International Institute for the Advancement of Medicine (Scranton, Pa.). The disappearance of the parent compound was studied in a mixture containing 5 uM compound, 0.5 mg/ml microsomal protein, and 2 mM NADPH in 50 mM K phosphate buffer, pH 7.4. Samples were incubated for 30 minutes at 37° C. The reaction was terminated by the addition of acetonitrile and compounds analyzed by LC-MS as described above.

[2] = In vitro metabolism: disappearance of parent compound in rat liver microsomes (male, female); assay type: in vitro ADME; conditions: 5 uM compound, 30 minutes 37° C.; for Fem. Rat (FR) % rem. 30′: female rat liver microsomes; for Male Rat (MR) % rem. 30′: male rat liver microsomes
Procedure: as §1

rat GnRH receptor = target: T1, rat GnRH receptor (Rattus norvegicus, UniProt P30969); experiment: Radioligand binding: inhibition of 125I-GnRH-A binding to rat GnRH receptor (rat pituitary membranes); conditions: read-out: Ki (nM), Inhibition Binding of 125I-GnRH-A to GnRH Receptors
T1 construct: or rat pituitaries (Pel Freez Biologicals, Rogers, Ark.) were homogenized; tissue Pel Freez Biologicals; host or cells: rat pituitaries (membrane preparation)
T1 sequence (P30969 1-327): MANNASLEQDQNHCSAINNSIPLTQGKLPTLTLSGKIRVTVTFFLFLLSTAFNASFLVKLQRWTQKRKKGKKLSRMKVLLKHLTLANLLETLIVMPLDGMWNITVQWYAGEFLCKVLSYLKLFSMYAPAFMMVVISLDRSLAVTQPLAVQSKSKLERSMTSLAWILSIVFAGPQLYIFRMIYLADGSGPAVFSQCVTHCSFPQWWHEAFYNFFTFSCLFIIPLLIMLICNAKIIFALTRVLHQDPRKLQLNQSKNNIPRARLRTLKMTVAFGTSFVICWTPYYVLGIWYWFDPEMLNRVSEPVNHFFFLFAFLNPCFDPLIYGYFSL
How it was run: (§2)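 Membranes from rat pituitaries, or HEK 293 cells stably expressing mouse or human receptor, incubated 1 hour at room temperature with ~0.04-0.06 nM radioligand (HEPES pH 7.4, EDTA, MgCl2, BSA) and competitor at 0.1-10,000 nM. Bound ligand collected by GF/C filtration and counted; Ki derived from IC50 by Cheng-Prusoff.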

human GnRH receptors = target: T2, human GnRH receptors (Homo sapiens, UniProt P30968); experiment: Radioligand binding: inhibition of 125I-GnRH-A binding to human GnRH receptor membranes; conditions: HEK 293 cell membranes
T2 construct: expressed in transfected cells; host or cells: HEK 293 cells, stably transfected; membranes
T2 sequence (P30968 1-328): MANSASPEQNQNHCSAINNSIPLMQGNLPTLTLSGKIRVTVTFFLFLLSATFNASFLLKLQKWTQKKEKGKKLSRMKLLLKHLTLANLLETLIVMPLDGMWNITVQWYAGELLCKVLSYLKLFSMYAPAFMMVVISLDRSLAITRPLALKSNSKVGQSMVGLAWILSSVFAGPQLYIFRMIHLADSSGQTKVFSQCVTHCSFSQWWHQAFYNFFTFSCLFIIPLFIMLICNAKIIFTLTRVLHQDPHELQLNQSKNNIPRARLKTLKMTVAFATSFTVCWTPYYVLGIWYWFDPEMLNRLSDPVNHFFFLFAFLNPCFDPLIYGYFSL
How it was run: as §2

[3] = Solubility at pH2 and pH6; assay type: physicochemical
[4] = Pharmacokinetics in rats (jugular vein cannula, plasma LC-MS); assay type: in vivo, Rat; conditions: for Cmax / half-life / Tmax: rat, plasma
Procedure: Rats (male or female, 200-225 g) were prepared with indwelling jugular vein cannula as described by Harms et al., Applied Physiol. 36:391-398 (1974), and allowed to recover overnight with free access to the standard vivarium chow and water. […] […] The blood samples were withdrawn at specific times, plasma was immediately separated and compound extracted with ethyl acetate. The samples were analyzed by LC-MS using 30-90% gradient of ACN in 50 mM ammonium acetate.
The pharmacokinetic parameters were calculated using WinNonlin software (Scientific Consulting Inc.). The bioavailability was calculated as AUCp.o./AUCi.v., where AUCp.o. and AUC i.v. are areas under the plasma concentration-time curve after oral and i.v. administration, respectively.

[5] = In vitro metabolism: disappearance of parent compound in monkey liver microsomes; assay type: in vitro ADME; conditions: 5 uM compound, 30 minutes 37° C.
Procedure: as §1

[6] = In vitro metabolism: disappearance of parent compound in human liver microsomes; assay type: in vitro ADME; conditions: 5 uM compound, 0.5 mg/ml protein, 2 mM NADPH, 30 minutes 37° C.
Procedure: as §1

[7] = pH 6, aqueous buffer, pH6, read-out: Solubility μg/ml pH6
[8] = female rat, 10 mg/kg as 5 mg/ml solution in 10% DMSO, 10% cremophor, 80% saline (footnote 5)
[9] = female, po, 10 mg/kg, female rat, 10 mg/kg as 5 mg/ml solution in 10% DMSO, 10% cremophor, 80% saline (footnote 5), read-out: FR Cmax
[10] = female, po, 10 mg/kg, female rat, 10 mg/kg as 5 mg/ml solution in 10% DMSO, 10% cremophor, 80% saline (footnote 5), read-out: FR T1/2 hr (converted)
[11] = female, po, 10 mg/kg, female rat, 10 mg/kg as 5 mg/ml solution in 10% DMSO, 10% cremophor, 80% saline (footnote 5), read-out: FR Tmax hr

Chain of H S A (P02768 25-609): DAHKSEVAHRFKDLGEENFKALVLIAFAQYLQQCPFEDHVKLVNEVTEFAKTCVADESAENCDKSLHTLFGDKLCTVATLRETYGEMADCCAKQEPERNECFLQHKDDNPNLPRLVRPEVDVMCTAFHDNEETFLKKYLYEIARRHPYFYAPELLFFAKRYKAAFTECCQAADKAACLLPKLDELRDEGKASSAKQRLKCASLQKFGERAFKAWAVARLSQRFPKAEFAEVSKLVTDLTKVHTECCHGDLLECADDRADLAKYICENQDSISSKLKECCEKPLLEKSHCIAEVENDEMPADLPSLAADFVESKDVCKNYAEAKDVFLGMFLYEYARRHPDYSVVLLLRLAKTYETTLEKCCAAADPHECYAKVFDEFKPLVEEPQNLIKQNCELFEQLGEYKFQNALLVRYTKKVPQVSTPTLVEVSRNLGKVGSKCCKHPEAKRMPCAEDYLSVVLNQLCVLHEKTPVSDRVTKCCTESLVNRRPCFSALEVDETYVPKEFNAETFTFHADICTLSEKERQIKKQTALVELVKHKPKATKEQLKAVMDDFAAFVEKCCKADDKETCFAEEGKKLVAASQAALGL

Row | SMILES | H S A column α (H S A) | Rat plasma % remain (Rat plasma % remain) [%] | Dog % rem. 30′ [1] [%] | Fem. Rat (FR) % rem. 30′ [2] [%] | Male Rat (MR) % rem. 30′ [2] [%] | Ki (rat GnRH receptor) [nM] | Ki (human GnRH receptors) [nM] | solubility [3, 7] [µg/mL] | FR Fp.o. [4, 8] [%^5] | Cmax [4, 9] [nM] | half-life [4, 10] [h] | Tmax [4, 11] [h] | Monkey % rem. [5] [%] | Human % rem. 30′ [6] [%] | solubility ([3]; pH 2, simulated gastric fluid, pH2, read-out: Solubility μg/ml pH2) [µg/mL] | MR Fp.o. ([4]; male rat, male rats dosed orally at 50 mg/kg) [%] | Cmax ([4]; male, oral, 50 mg/kg, male rat, male rats dosed orally at 50 mg/kg, read-out: MR Cmax) [nM] | half-life ([4]; male, oral, 50 mg/kg, male rat, male rats dosed orally at 50 mg/kg, read-out: MR T1/2 hr (converted)) [h] | Tmax ([4]; male, oral, 50 mg/kg, male rat, male rats dosed orally at 50 mg/kg, read-out: MR Tmax hr) [h]
1 | COc1nc(Nc2ccccc2)nc(OC)c1NC(=O)c1ccc(Cc2cc3c(cc2C)C(C)(C)OC3(C)C)o1 [Example D1, 5-(1,1,3,3,6-Pentamethyl-1,3-dihydro-isobenzofuran-5-ylmethyl)-furan-2-carboxylic Acid (4,6-dimethoxy-2-phenylamino-pyrimidin-5-yl)-amide] | 8 | 100 | 52 | 81 | 20 | 2.1 | 1.6 | > 15 | 2 | 100 | 1.2 | 1 | 22 | 82 | – | – | – | – | –
2 | COc1nc(NCCN2CCCC2)nc(OC)c1NC(=O)c1ccc(Cc2cc3c(cc2C)C(C)(C)OC3(C)C)o1 [Example D5] | 2 | – | 98 | 95 | 79 | 0.84 | 1.5 | > 30 | – | – | – | – | 30 | 80 | > 30 | 34 | 700 | 7 | 4
3 | CCN(CC)CCNc1nc(OC)c(NC(=O)c2ccc(Cc3cc4c(cc3C)C(C)(C)OC4(C)C)o2)c(OC)n1 [Example D7, N-(2-{[2-(Diethylamino)ethyl]amino}-4,6-dimethoxypyrimidin-5-yl)-5-[(1,1,3,3,6-pentamethyl-1,3-dihydro-2-benzofuran-5-yl)methyl]-2-furamide] | 2 | 100 | 91 | 95 | 91 | 2.2 | 6 | – | 30 | 500 | 4.1 | 2 | 16 | 91 | – | – | – | – | –
4 | COc1nc(N(C)C)nc(OC)c1NC(=O)c1ccc(Cc2cc3c(cc2C)C(C)(C)OC3(C)C)o1 [Example D8, N-[2-(Dimethylamino)-4,6-dimethoxypyrimidin-5-yl]-5-[(1,1,3,3,6-pentamethyl-1,3-dihydro-2-benzofuran-5-yl)methyl]-2-furamide] | 3 | 100 | 49 | 84 | 58 | 31 | 6 | – | – | – | – | – | 4 | 73 | – | – | – | – | –
5 | COc1nc(NCCCN(C)C)nc(OC)c1NC(=O)c1ccc(Cc2cc3c(cc2C)C(C)(C)OC3(C)C)o1 [Example D9, N-(2-{[3-(Dimethylamino)propyl]amino}-4,6-dimethoxypyrimidin-5-yl)-5-[(1,1,3,3,6-pentamethyl-1,3-dihydro-2-benzofuran-5-yl)methyl]-2-furamide] | 2 | 100 | 100 | 100 | 80 | 0.54 | 3 | – | 57 | 800 | 4.3 | 2 | 44 | 89 | – | – | – | – | –
6 | COc1nc(NCCCNCCCN)nc(OC)c1NC(=O)c1ccc(Cc2cc3c(cc2C)C(C)(C)OC3(C)C)o1 [Example D17, N-[2-({3-[(3-Aminopropyl)amino]propyl}amino)-4,6-dimethoxypyrimidin-5-yl}-5-[(1,1,3,3,6-pentamethyl-1,3-dihydro-2-benzofuran-5-yl)methyl]-2-furamide] | 10 | – | 29 | 24 | 23 | 0.2 | 0.65 | – | – | – | – | – | 42 | 45 | – | – | – | – | –
7 | COc1nc(NCCCN2CCOCC2)nc(OC)c1NC(=O)c1ccc(Cc2cc3c(cc2Cl)C(C)(C)CCC3(C)C)o1 [Example G1, 5-(3-Chloro-5,5,8,8-tetramethyl-5,6,7,8-tetrahydro-naphthalen-2-ylmethyl)-furan-2-carboxylic acid[4,6-dimethoxy-2-(3-morpholin-4-yl-propylamino)-pyrimidin-5-yl]-amide] | >30 | 92 | 70 | 92 | 80 | 0.9 | 1.7 | – | 10 | 200 | 4.1 | 2 | 0 | 79 | – | – | – | – | –

Source: US6833372B2, “Non-peptide GnRH agents, Pharmaceutical compositions, and methods for their use” (Pfizer, Inc., priority 2002, dated 2004)
